In ChEMBL document CHEMBL1201862, “PubChem BioAssay data set” (2004):
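Step 1: Grow cells in 96-well plates. Step 2: Expose to compound for 48 hours at 5 concentrations. Step 3: Interpolate endpoints linearly; if unreached, use highest concentration. The concentration for 50% growth inhibition is given as GI50.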 Activity calls are given as the source filed them. Rule as the data show it: active = GI50 up to about 1.1 µM and inactive = higher.

What was measured:
Assay in all cases: NCI-60 cell line screen, 48 h
[1] = test system: A549
[2] = test system: HCC 2998
[3] = test system: HOP-62
[4] = test system: IGROV-1
[5] = test system: LOX IMVI
[6] = test system: M14
[7] = test system: Malme-3M
[8] = test system: NCI-H226
[9] = test system: NCI-H522
[10] = test system: OVCAR-8
[11] = test system: SK-OV-3
[12] = test system: SNB-19
[13] = test system: SW-620
[14] = test system: U-251
[15] = test system: UACC-62
[16] = test system: UACC-257

Structure (SMILES)	GI50 [1]	GI50 [2]	GI50 [3]	GI50 [4]	GI50 [5]	GI50 [6]	GI50 [7]	GI50 [8]	GI50 [9]	GI50 [10]	GI50 [11]	GI50 [12]	GI50 [13]	GI50 [14]	GI50 [15]	GI50 [16]
COc1cc(OC)cc(C(=O)Cc2c(C(=O)c3ccccc3)c3ccccc3n2C(=O)c2ccccc2)c1	25.3 µM (inactive)	43.4 µM (inactive)	93.5 µM (inactive)	31.3 µM (inactive)	31.8 µM (inactive)	32.2 µM (inactive)	38.5 µM (inactive)	31.1 µM (inactive)	6 µM (inactive)	16.9 µM (inactive)	22.8 µM (inactive)	11.3 µM (inactive)	37.5 µM (inactive)	20.2 µM (inactive)	35.4 µM (inactive)	
COc1cc2c3c(c1OC)-c1c(ccc4c1OCO4)CC3(C#N)N(C(=O)c1ccccc1)CC2 (configuration not stated)	64.3 µM (inactive)		38.5 µM (inactive)	> 100 µM (inactive)	43 µM (inactive)	> 100 µM (inactive)	51.2 µM (inactive)	37.7 µM (inactive)	> 100 µM (inactive)	44.5 µM (inactive)	50.5 µM (inactive)	61.5 µM (inactive)	> 100 µM (inactive)	36.4 µM (inactive)	42 µM (inactive)	57.7 µM (inactive)
C[N+]1=c2c3cccc4cccc(c(=O)n2CC1)c43	22.4 µM (inactive)		22 µM (inactive)	21.9 µM (inactive)	5.81 µM (inactive)	14.9 µM (inactive)	10.5 µM (inactive)	13.1 µM (inactive)	11.4 µM (inactive)	16.6 µM (inactive)	20.6 µM (inactive)		11 µM (inactive)	28.6 µM (inactive)	17.5 µM (inactive)	16.1 µM (inactive)
CC1=C(C(=O)Nc2ccc([N+](=O)[O-])cc2)C(c2ccco2)C(C(=O)Nc2ccc([N+](=O)[O-])cc2)=C(C)N1	18.1 µM (inactive)	8.77 µM (inactive)	10 µM (inactive)	14.9 µM (inactive)	19.6 µM (inactive)	21.9 µM (inactive)	12.4 µM (inactive)	19.1 µM (inactive)	12.4 µM (inactive)	26.9 µM (inactive)	9.35 µM (inactive)	27.1 µM (inactive)	24.4 µM (inactive)	21.9 µM (inactive)		18.5 µM (inactive)
COc1ccc(/C=C(\Cl)c2ccc(OC)cc2)cc1	> 100 µM (inactive)	> 100 µM (inactive)	> 100 µM (inactive)		> 100 µM (inactive)	> 100 µM (inactive)	> 100 µM (inactive)	> 100 µM (inactive)	> 100 µM (inactive)	> 100 µM (inactive)	0.325 µM (active)	> 100 µM (inactive)	> 100 µM (inactive)	> 100 µM (inactive)	38.8 µM (inactive)	> 100 µM (inactive)
CC(C(=O)Oc1ccc2ccccc2c1-c1c(O)ccc2ccccc12)c1ccccc1 (configuration not stated)	13.6 µM (inactive)	14.5 µM (inactive)	15.5 µM (inactive)	17.1 µM (inactive)		13.2 µM (inactive)	17.4 µM (inactive)	10.1 µM (inactive)	> 10 µM (inactive)	18.8 µM (inactive)	15.4 µM (inactive)	14.7 µM (inactive)	15.2 µM (inactive)	15.1 µM (inactive)	13 µM (inactive)	13.7 µM (inactive)
O=C(O)Cc1cc(=O)[nH]c2c1C(=O)CCC2		> 100 µM (inactive)		> 100 µM (inactive)		> 100 µM (inactive)	> 100 µM (inactive)	> 100 µM (inactive)	> 100 µM (inactive)	> 100 µM (inactive)	> 100 µM (inactive)	> 100 µM (inactive)	> 100 µM (inactive)	> 100 µM (inactive)		> 100 µM (inactive)
CC(C)CN(CC(C)C)C(=O)C1CCCC[C@@H]1C(=O)O (some centres not stated)	> 100 µM (inactive)	> 100 µM (inactive)	> 100 µM (inactive)	> 100 µM (inactive)	> 100 µM (inactive)	> 100 µM (inactive)	> 100 µM (inactive)	> 100 µM (inactive)	> 100 µM (inactive)	> 100 µM (inactive)	> 100 µM (inactive)		> 100 µM (inactive)	> 100 µM (inactive)	> 100 µM (inactive)	> 100 µM (inactive)
O=C(O)c1cc(=O)c2c([nH]c3ccccc32)s1	> 100 µM (inactive)	> 100 µM (inactive)	> 100 µM (inactive)	> 100 µM (inactive)		> 100 µM (inactive)	> 100 µM (inactive)		> 100 µM (inactive)	> 100 µM (inactive)	> 100 µM (inactive)	> 100 µM (inactive)	> 100 µM (inactive)		> 100 µM (inactive)	> 100 µM (inactive)
CC1=C[C@H]2C[C@@]3(C)O[C@@H]([C@]4(C)CC[C@H]([C@@H](C)C(=O)O)OO4)CC3C(C)(C)[C@H]2CC1 (some centres not stated)	1.88 µM (inactive)	1.04 µM (active)	2.22 µM (inactive)		0.161 µM (active)	1.44 µM (inactive)	0.849 µM (active)	2.01 µM (inactive)	0.331 µM (active)	1.45 µM (inactive)		1.79 µM (inactive)	0.259 µM (active)	1.65 µM (inactive)		1.68 µM (inactive)
O=C1C2=C(c3ccccc31)C(c1cccc(Cl)c1)NC(S)=N2 (configuration not stated)	> 100 µM (inactive)	> 100 µM (inactive)	> 100 µM (inactive)	> 100 µM (inactive)		> 100 µM (inactive)	> 100 µM (inactive)	44.2 µM (inactive)	> 100 µM (inactive)	96.4 µM (inactive)	> 100 µM (inactive)	> 100 µM (inactive)	> 100 µM (inactive)	> 100 µM (inactive)	> 100 µM (inactive)	> 100 µM (inactive)
C[P+](C)(C)C	> 100 µM (inactive)	> 100 µM (inactive)	> 100 µM (inactive)	> 100 µM (inactive)	> 100 µM (inactive)	> 100 µM (inactive)	> 100 µM (inactive)	> 100 µM (inactive)		> 100 µM (inactive)	> 100 µM (inactive)	> 100 µM (inactive)	> 100 µM (inactive)	> 100 µM (inactive)	> 100 µM (inactive)	> 100 µM (inactive)
CC(=O)C1C(=O)NC(=O)C1=O (configuration not stated)		> 100 µM (inactive)	> 100 µM (inactive)	> 100 µM (inactive)	> 100 µM (inactive)	> 100 µM (inactive)	> 100 µM (inactive)	> 100 µM (inactive)	> 100 µM (inactive)	> 100 µM (inactive)	> 100 µM (inactive)	> 100 µM (inactive)	29.2 µM (inactive)	> 100 µM (inactive)	> 100 µM (inactive)	> 100 µM (inactive)
CC(C)N(C(=O)C1(C)CC1)C(C)C	> 100 µM (inactive)	> 100 µM (inactive)	> 100 µM (inactive)	> 100 µM (inactive)		> 100 µM (inactive)	> 100 µM (inactive)	> 100 µM (inactive)	> 100 µM (inactive)	> 100 µM (inactive)	> 100 µM (inactive)	> 100 µM (inactive)	> 100 µM (inactive)	> 100 µM (inactive)	> 100 µM (inactive)	> 100 µM (inactive)
